Data as given in PMC10194883 (PLOS ONE, 2023).

What was measured:
Type in all cases: cell-based
[1] = test system: SARS-CoV-2 Delta (B.1.617.2) pseudovirus into ACE2h cells; experiment: microbe, parasite or virus in culture
[2] = test system: SARS-CoV-2 pseudovirus Omicron (B.1.1529) into ACE2h cells
[3] = test system: ACE2 high expressing-HEK293T cells (ACE2h cells); conditions: 24 h, even at 100 μM
Procedure: For cytotoxicity assay, ACE2^h cells were seeded into 96-well plates at a density of 1×10^4 cells per well and then treated with different concentrations of OA (0.01, 0.1, 1, 10, 100 μM) for 24 h, then 10 μL of Cell Counting Kit (IV08-500, Invigentech, USA) solution was added to each well followed by 2 h of incubation. The relative cell viability was assessed by the detection of the absorbance at 450 nm using a microplate reader (Infinite F50, Thermo Fisher, China). The survival rate of ACE2^h cells was calculated as the following formula: Survival rate = [(OD Treated –OD Blank) / (OD Control−OD Blank)] × 100%.

**Q.** Which “expression of green fluorescent protein in ACE2h cells” value [1] does the source give for O=C(O)C(=O)O [OA, Oxalic acid] here?
**A.** significantly reduced

**Q.** What about the IC50 ([1]; Pseudovirus, read-out: IC50, inhibition of entry of Delta pseudovirus into ACE2h cells) of the same compound?
**A.** 26 µM

**Q.** And the “luciferase activity compared to the control” value [2]?
**A.** significantly reduced

**Q.** And the “cytotoxic effect (cell viability)” value [3]?
**A.** no significant cytotoxic effect
